Data taken from publication PMC9767310 (Journal of chemical information and modeling, 2022).
“Also recorded” adds a separate entry of the source. Structures can show the parent of a compound that is named as a salt. Values belong to the molecule of their own block, whether it stands above or below them.

How the values were obtained:
[1] = target: T1, αVβ3 (Homo sapiens, UniProt P05106+P06756); assay: αVβ3-mediated cell adhesion to fibrinogen; type: cell-based
[2] = target: T1, αVβ3; assay: Monoclonal antibody AP5 binding assay; type: cell-based
[3] = target: recombinant αVβ3 ectodomain (Homo sapiens, UniProt P05106+P06756); assay: Negative-stain electron microscopy of αVβ3 ectodomain conformation

- inhibition of αVβ3-mediated cell adhesion (positive control) ([1]; 3 nM): > 90%
Compound: COc1ccc([C@H](CC(=O)O)N2CCN(CCCc3ccc4c(n3)NCCC4)C2=O)cn1 [MK-429, reference compound]

- IC50 [1]: 1.3 ± 0.33 µM
Compound: OCC[C@@H]1CN(c2ccnc3ccccc23)CCN1Cc1ccc2c(n1)NCCC2 [MSR01R, (R)-2-(4-(quinolin-4-yl)-1-((5,6,7,8-tetrahydro-1,8-naphthyridin-2-yl)methyl)piperazin-2-yl)ethan-1-ol hydrochloride]

- IC50 [1]: 1 ± 0.3 µM
Compound: OCC[C@H]1CN(c2ccnc3ccccc23)CCN1Cc1ccc2c(n1)NCCC2 [MSR01S, (S)-2-(4-(quinolin-4-yl)-1-((5,6,7,8-tetrahydro-1,8-naphthyridin-2-yl)methyl)-piperazin-2-yl)ethan-1-ol hydrochloride]

- IC50 [1]: 2 ± 1.73 µM
Compound: c1ccc2c(N3CCN(Cc4ccc5c(n4)NCCC5)CC3)ccnc2c1 [MSR02, 7-((4-(quinolin-4-yl)piperazin-1-yl)methyl)-1,2,3,4-tetrahydro-1,8-naphthyridine]

- EC50 ([2]; EC50 (half-maximal exposure of the AP5 epitope), MSR03 dihydrochloride prepared in 1 M NaCl, n = 3): > 300 µM
- IC50 [1]: 1.6 ± 0.58 µM
- increase in potency vs ZINC72424116 ([1]; adhesion IC50): 3.5 fold
- percentage of αVβ3 in the active, extended-open conformation ([3]; 312 μM, control 5%): did not increase this percentage
Compound: Cl.Cl.O=C(NCCCc1ccc2c(n1)NCCC2)Nc1ccnc2ccccc12 [MSR03, 1-(quinolin-4-yl)-3-(3-(5,6,7,8-tetrahydro-1,8-naphthyridin-2-yl)propyl)urea dihydrochloride]
- exposure of the AP5 epitope (in words) ([2]; HEK-αVβ3 cells): did not expose the AP5 epitope; also recorded: does not expose the epitope for the ligand-induced binding site of antibody AP5
- receptor extension and swing-out by negative-stain EM (in words) [3]: does not induce receptor extension and swing-out
